Experimental findings from paper PMC8406304, “Inhibiting Type VI Secretion System Activity with a Biomimetic Peptide Designed To Target the Baseplate Wedge Complex” (mBio, 2021) are described below.

“And” between values parts separate entries of the source, which are not always exact repeats. Equal entries are not always repeated. “Also recorded” adds a separate entry of the source.

The test system of one assay is TssK-L14A. In words: Isothermal titration calorimetry (ITC), TssK-L14A variant. Type of assay: binding, enteroaggregative Escherichia coli (EAEC). Conditions: 25 μM TssK-L14A, 1 mM wild-type BCP, 50 mM HEPES pH 7.0, 150 mM NaCl, 25°C. As for the experimental part:
To evaluate the direct interaction between the BCP and its target TssK, we performed isothermal titration calorimetry (ITC) experiments. The wild-type BCP and TssK interact with an observable affinity (KD) of 60 μM (Fig. 5A).
The working buffer for both proteins and peptide was 50 mM HEPES (pH 7.0), 150 mM NaCl to avoid buffer mismatch. The experiments were performed at 25°C using the MicroCal PEAQ-ITC instrument (Malvern Panalyticals, Malvern, UK) in duplicate with 19 injections, first with an initial injection of 0.4 μl followed by 18 injections of 2 μl. Two assays were performed. In the first, 25 μM WT TssK ligand was in the cell and 1 mM WT BCP analyte was in the syringe. In the second, 25 μM TssK L14A ligand was in the cell and 1 mM WT BCP analyte was in the syringe. The reaction was performed with a constant stirring speed of 750 rpm; each injection lasted for 4 s with a 150-s space between injections. A constant heat control (offset) was removed from the raw data to account for heat dilution before integration. The data were fitted using the One Set of Sites model in the PEAQ-ITC analysis software.

The subject of assay [1] is TssK-TssFGE (TssKFGE wedge complex). In words: Biolayer interferometry (BLI), TssFGE binding to biotinylated TssK. Type of assay: biochemical, enteroaggregative Escherichia coli (EAEC). The protocol:
Streptavidin-tagged TssK was purified as described above. The TssK trimer was further polished by size exclusion chromatography using a Superose 6 10/300 GL (GE Healthcare) in 50 mM HEPES (pH 7.0), 150 mM NaCl at 0.25 ml/min. For biolayer interferometry (BLI) experiments, we used high-precision Strep (SAX) biosensors from Forté Bio (number 18-5117) on the BLItz machine (Forté Bio). The trimeric ligand TssK was biotinylated using equimolar N-hydroxysuccinimide (NHS)–polyethylene glycol 4 (PEG4)–biotin (Pierce EZ-Link; 21330) in 50 mM HEPES (pH 7.0), NaCl 150 mM for 1 h at room temperature before buffer exchange in CentriPure P2 (Generon; IRL) columns against 50 mM HEPES (pH 7.0), NaCl 150 mM to remove the excess biotin. BL21(DE3) cells were used to express the interacting analytes TssG-TssF-TssE. In addition, cells containing an empty plasmid were used as a control. Cells were broken as described above, and the clarified supernatants after centrifugation for 30 min at 20,000 × g contained the control and TssFGE lysate. Streptavidin biosensors were hydrated for 10 min in HEPES buffer before binding of the biotinylated TssK. Biotinylated TssK was loaded at 1.2 μM onto the SAX biosensors for 120 s, and then the excess TssK was dissociated in HEPES buffer for 120 s. For the remaining kinetic assays, we used kinetic buffer (PBS [pH 7.3] plus 0.02% Tween 20, 0.1% bovine serum albumin [BSA], 0.05% sodium azide) (Forté Bio number 18-5032) with orbital shaking at 2,200 rpm. Kinetic buffer (KB) was used to dilute the lysates and the peptide to decrease nonspecific signals. The unbound Strep sites were blocked with 2 μM control lysate for 120 s and washed with KB for 120 s. The kinetic assays were performed using three steps with different times: baseline, 30 s; association, 120 s; and dissociation, 120 s. All the following assays were performed in triplicate. […] In the first assay, we added 47 μM lysate expressing the analytes TssG, TssF, and TssE to the bound TssK. In the second assay, we added 1 mM wild-type (WT) BCP to the bound TssK before adding 47 μM TssF-TssG-TssE. In the third assay, to validate the specificity of the WT BCP we added 1 mM mutant BCP that lacks the binding residues to the bound TssK before adding 47 μM TssF-TssG-TssE. Last, to redemonstrate the specificity of the BCP-WT, we added 1 mM randomized BCP that contains the binding residues but out of order to the bound TssK before adding 47 μM TssF-TssG-TssE.

The test system of assay [2] is EAEC T6SS+ killing of E. coli K-12 W3110 prey. In words: Antibacterial growth competition assay (EAEC attacker vs E. coli prey). Type of assay: cell-based, enteroaggregative Escherichia coli (EAEC). Conditions: 1 mM BCP added directly to competition mixture, 4 h at 37°C, CFU enumeration. The protocol: Based on the BCP ability to bind to TssK and to limit the in vitro binding of the TssFGE wedge components onto TssK, we evaluated its T6SS interference potential on bacteria. We set up a competition experiment between EAEC (predator, T6SS^+) and E. coli (prey, T6SS^−) strains (see Materials and Methods) in the presence or absence of the BCP. Incubation of cells with 1 mM BCP is accompanied by a drastic decrease of prey cells number, similar to what is observed in the absence of BCP. […] To test this hypothesis, we developed a protocol favoring BCP entry into bacterial cells without any electroporation or chemical steps likely to impair T6SS activity (see Materials and Methods).
The antibacterial growth competition assay was performed as previously described ([100]). Wild-type E. coli K-12 strain W3110 bearing the pUA66-rrnB plasmid (conferring kanamycin resistance and constitutive GFP fluorescence, with the gfp gene under the control of the ribosomal rrnB promoter) ([101]) was used as the recipient. Attacker and recipient cells were grown for 16 h in LB medium, diluted in SIM medium to allow maximal expression of the sci-1 gene cluster. Once the culture reached an A600 of ∼0.8, cells were harvested and normalized, and drops of the mixture were spotted in triplicate onto a prewarmed dry SIM agar plate with or without the addition of 0.5 mg ml^−1 arabinose. […]

“SRPVMG-SRPVMG-SRPVMG (head to tail) [BCP, biomimetic cyclic peptide SRPVMG-SRPVMG-SRPVMG mimicking TssG foot 1]”: the “ITC binding signal with TssK-L14A” value in the assay on TssK-L14A is “None of these conditions led to a detectable ITC binding signal; also recorded: lack of binding”. Also, the “TssFGE binding response over time in the presence of the BCP” value in assay [1] (BLI sensogram, control lysate signal (50 μM TssFGE lysate without bound TssK) subtracted, three independent experiments) is recorded as “decreasing binding response over time”. The “maximum binding average response of TssFGE to TssK at 150 s in presence of peptide” value in assay [1] (BLI, 47 μM TssFGE lysate, TssK preincubated with 1 mM peptide, kinetic buffer pH 7.3, mean ± SD of three independent assays, listed as wild-type BCP) was 0.121 ± 0.010 nm and 0.121 ± 0.0102 nm. For the same substance, the “interference with TssKFGE formation” value in assay [1] (BLI, 1 mM peptide, in words) is on record as “significatively interferes with the TssKFGE formation”. For the same substance, in assay [2], the “effect on killing ability of EAEC (prey survival)” value was “does not affect the killing ability of EAEC”.
